Consider `CC(NC(Nc1cc(Cl)cc(Cl)c1)=C(C#N)S(=O)(=O)c1ccc(Cl)cc1)C(C)(C)C` (centres undefined), for which the melting point lay in the range of 163 to 169 °C.

In the case of `COCc1cnc2c(NC(=O)c3c(Cl)cccc3Cl)ccc(C)c2c1N1CCN(C)C1=O`, the melting point is 105 to 112 °C.

With `CC(NC(=O)OC(C#N)c1cccc(Oc2ccccc2)c1)c1cccc2ccccc12` (centres undefined), the melting point came to 122 °C.

Compound `CC(C)c1ccc(CCC(O)CC2CCCCC2)cc1NC(=O)CC1c2ccccc2Oc2ccccc21` (centres undefined) came in with a melting point of 144 to 145 °C.

Compound `CCNC1C(C)CN(c2c(F)cc3c(=O)c(C(=O)O)cn(C4CC4)c3c2OC)CC1C` (centres undefined) gave a melting point of 250 to 252 °C.

Compound `Fc1ccc(C(=C(c2ccccc2)C(F)(F)F)c2ccc(OCCBr)cc2)cc1` came in with a melting point of 142 to 144 °C.

For `CC(=NNC(=O)C1CC1)c1ccc(Cl)nc1`, the melting point was determined as 218 °C.

`CCCCCCCCCCCCCCCCNc1ccc(C(=O)NS(C)(=O)=O)cc1` returned a melting point of 173 to 175 °C.

With `CCOC(=O)c1cnc2sc(SCc3ccccc3)nn2c1=O`, the melting point was 129 to 132 °C.

Compound `O=C(O)CCc1nc(-c2cc3ccccc3o2)no1` had a melting point of 154 to 155 °C.

In the case of `N#Cc1c(N2CCN(CCCCCC(=O)N3Cc4ccccc4C3)CC2)cccc1C(F)(F)F`, the melting point is 160 °C.

As to `OC1CSC(Oc2ccc(-c3ccco3)nc2)C(O)C1O` (centres undefined), the melting point turned out to be 146 °C.

As for `O=C(O)C=CC(=O)Nc1ccc(C(=O)O)cc1`, the melting point is 217 to 219 °C.

`O=C1c2c(Cl)cccc2-n2cnc(C(=O)n3ccnc3)c2[C@@H]2CCCN12` returned a melting point of 240 to 242 °C.

With `CC(=O)/C(=C/I)c1ccccc1`, the melting point was 97 °C.

As for `Cc1nc2c(n1C(=O)OC(C)(C)C)CCCC2=O`, the melting point was determined as 126 °C.

With `CCCCC1Oc2ccc(Cl)cc2N(CC(O)CO)C1=O` (centres undefined), the melting point amounted to 69.5 °C.

The compound `COc1ccc(-c2cc3c(OC)cc(OC)cc3nc2OC(C)C(=O)N(C)C)cc1` (centres undefined) returned a melting point of 54 to 55 °C.

In turn, `CC(C)C(CN1CCC(Nc2nc3ccccc3n2-c2cccc3c2NCCC3)CC1)NCc1ccccc1` (centres undefined) registered a melting point of 126 °C.

As for `CCN1C(=O)C(C)(C)C(=O)N(C)c2cc(CN(CCn3c(=O)ccc4ccccc43)Cc3cnccc3C)ccc21`, the melting point lay in the range of 120 to 121 °C.

With `CN(C)Cc1c(-c2ccc(O)cc2)[nH]c2ncnc(Nc3cccc(Cl)c3)c12`, the melting point was in the range of 269 to 271 °C.

`NC(=NCCCc1ccccn1)NCCCc1c[nH]cn1` yielded a melting point of 85 to 86 °C.

`N#Cc1ccc2c(c1)N(C1CC1)CNS2(=O)=O` yielded a melting point of 178 to 180 °C.

For `COC(=O)CCCc1cc2nc(Cl)ccc2n1S(=O)(=O)c1ccc(-c2ccccn2)cc1`, the melting point lay in the range of 123 to 124 °C.

`C=CCOC(=O)Nc1cc(-c2cccc(Cl)c2)sc1C(C)(C)O` showed a melting point of 60 to 61 °C.

As for `Clc1cccc(-c2nc3ccccn3c2-c2ccnc(-c3ccc(OCCN4CCCC4)cc3)c2)c1`, the melting point is 298 °C.

Consider `CC(C)(S)CNC(=O)c1nccnc1C(=O)O`, for which the melting point fell in the range of 141 to 144 °C.

`Cc1c(N2CCN(C)C(C)C2)c(F)cc2c(=O)c(C(=O)O)cn(C3CC3)c12` (centres undefined): the melting point was in the range of 181 to 183 °C.

In turn, `CC(=O)SCC(C(=O)N[C@@H](Cc1c[nH]c2ccccc12)C(=O)O)C(F)(F)F` (some centres undefined) came in with a melting point of 140 to 143 °C.

In turn, `COc1cc2c(cc1[N+](=O)[O-])C(=O)C1(CC1)O2` yielded a melting point of 160 to 163 °C.

`CN(C1CCC(=O)CC1)S(=O)(=O)c1ccc(Nc2nccc(Nc3ccc(F)cc3)n2)cc1` showed a melting point of 203 °C.

With `CCn1ncc2c(Cl)c3cc(SC)ccc3nc21`, the melting point is 120 to 121 °C.

Take `COc1ccc2ncc([N+](=O)[O-])c(Nc3ccccc3Cl)c2c1`: the melting point was in the range of 163 to 165 °C.

The compound `CCOC(=O)c1c(C(F)F)nn(C)c1Cl` returned a melting point of 37 to 39 °C.

`NC(=O)NN=Cc1ccc(Oc2cccnc2)cc1` displayed a melting point of 160 to 162 °C.

`O=[N+]([O-])N=C1NCCN1Cc1ccc(F)nc1` showed a melting point of 121 to 124 °C.

The compound `CC(=NOCCOc1ccc(C[C@H](Oc2ccc(C(C)(C)C)cc2)C(=O)O)cc1)c1ccc(-c2ccccn2)cc1` yielded a melting point of 148 to 150 °C.

The compound `O=CN1C(=O)[C@H]2N=C(Cc3ccccc3)O[C@H]21` gave a melting point of 90 to 92 °C.

As to `Cc1c(/C=C/C(=O)c2c[nH]c3ccccc23)ncn1C(c1ccccc1)(c1ccccc1)c1ccccc1`, the melting point fell in the range of 240 to 242 °C.

On to `CC(=O)OC1CCC2(C)C(=CCC3C2CCC2(C)C(n4ncnn4)=CCC32)C1` (centres undefined), for which the melting point lay in the range of 155 to 156 °C.

`O=C(O)c1cc2c(s1)CCc1ccccc1-2` displayed a melting point of 205 to 208 °C.

`COC(=O)CN1CCN2C(Cc3cc(OC)c(OC)cc3C2c2ccccc2)C1` (centres undefined) registered a melting point of 110 to 113 °C.

Take `Cc1ncoc1C(C)(O)c1cccs1` (centres undefined): the melting point lay within 84 to 85 °C.

As for `CCS(=O)(=O)NC(=O)N1CC1C#N` (centres undefined), the melting point lay within 70 to 73 °C.

In turn, `COCCSc1[nH]nc(-c2ccc(Cl)cc2)c1-c1ccncc1` displayed a melting point of 189 to 190 °C.

For `CC(C)c1ccc(C(=O)C2=C(O)C(=O)N(c3ccc(OCc4ccccc4)nn3)C2c2ccc(OC(F)(F)F)cc2)cc1` (centres undefined), the melting point worked out at 269 °C.

The compound `CCCCc1nc2cccc(C(=O)O)c2n1Cc1ccc(-c2ccccc2S(=O)(=O)NC(=O)NCC2CC2)cc1` displayed a melting point of 234 to 236 °C.

In the case of `COc1cc2cc(OS(=O)(=O)C(F)(F)F)cnc2cc1OC`, the melting point was 82.5 to 84 °C.

`Cc1c(C(=O)Nc2ccc(OCCCN3CCOCC3)c(C#N)c2)cnn1-c1ccc(C(F)(F)F)cc1` displayed a melting point of 172 to 174 °C.

`CCN(CC)CC(=O)Nc1cccc(-c2cc(-c3ccc(F)cc3OCOC)nc(NC(=O)c3ccco3)c2C#N)c1` had a melting point of 126 to 128 °C.

With `CS(=O)(=O)Nc1ccc(C(=O)N[C@@H](Cc2ccc(-c3ccccc3C(F)(F)F)cc2)C(=O)O)c(Cl)c1`, the melting point was 114 °C.

In turn, `CCc1nc(C(=O)c2ccc(Cl)cc2Cl)c(C=O)n1C(CC)CC` returned a melting point of 85 to 86 °C.

With `CS(=O)(=O)c1ccc(-c2ccccc2-c2ccc(C(F)(F)F)cc2)cc1`, the melting point lay within 173 to 174 °C.

Compound `Nc1ccc(C(c2ccc(N)c(N)c2)(C(F)(F)F)C(F)(F)F)cc1N` displayed a melting point of 218 to 220 °C.

`CC(=CCO)CS(=O)(=O)c1ccccc1` displayed a melting point of 55 to 56.5 °C.

As to `CC(=O)OCCn1cc(C2=C(c3cn(C)c4ccccc34)C(=O)OC2=O)c2ccccc21`, the melting point is 198 to 199 °C.

Consider `N#Cc1nn(-c2c(Cl)cc(C(F)(F)F)cc2Cl)cc1-c1ccccc1C(F)(F)F`, for which the melting point lay within 142 to 143 °C.

`O=C(O)c1ccc(OCc2ccccc2)cc1O` had a melting point of 179 to 180 °C.

Compound `CC(c1oc2ccccc2c(=O)c1-c1ccccc1)n1cnc2c(N)ncnc21` (centres undefined) showed a melting point of 254 to 257 °C.

`CNc1n[nH]c(=O)n1NC` came in with a melting point of 135 to 137 °C.

`COC(=O)c1nc(-c2ccc(Cl)c(OC)c2F)cc(NC(C)=O)c1O` came in with a melting point of 168 to 172 °C.

As for `c1ccc(CSc2ncccc2C2=NOCC2)cc1`, the melting point lay in the range of 97 to 98 °C.

With `Cc1onc(-c2ccco2)c1-c1ccccc1`, the melting point is 93 to 96 °C.

The compound `O=C1c2ccccc2NC(=S)C2CCCN12` (centres undefined) showed a melting point of 268 to 270 °C.

Compound `CC(=O)c1c(O)ccc2c(C)cc(=O)oc12` gave a melting point of 167 to 169 °C.

`CCCCCCCN(Cc1ccc(CCCCCC)cc1)C(Nc1ccc(C(F)(F)F)cc1)=C1C(=O)COC1=O` had a melting point of 94 to 98 °C.

For `O=C(CC=C(Cl)Cl)Oc1ccc(F)cc1`, the melting point was in the range of 47 to 50 °C.

As to `Cc1ccc(C=Cc2ccc(N(c3ccccc3)c3ccc4c5c(cccc35)CC4)cc2)cc1`, the melting point was 148 to 149 °C.

Regarding `CCC(CC)Nc1c(N)cc(C)c(C)c1[N+](=O)[O-]`, the melting point is 80 to 82 °C.

In the case of `CC(C)(CN)Cc1ccc(-c2ccc(CC(C)(C)CN)cc2)cc1`, the melting point lay within 97 to 99 °C.

`CCCCc1cccc2[nH]c(C(=O)OCC)cc(=O)c12` returned a melting point of 132 to 133 °C.

`CN(C)C1CCc2[nH]c3c(C#N)cccc3c2C1` (centres undefined) came in with a melting point of 177 to 179 °C.

The compound `O=C1C(=O)c2ccccc2C2=C1SCC1(CCN(CCCOc3ccc(F)cc3)CC1)O2` gave a melting point of 164 to 165 °C.

Compound `Oc1ccc(Cl)c2c1CCCC2` yielded a melting point of 58 to 59 °C.

On to `CCCCCCCCCOc1ccc(-c2ccc(C3CCC(C#N)(CCCCCCCCC)CC3)cc2)cc1` (centres undefined), for which the melting point was 86 °C.

In the case of `CCSC(=O)CCS(=O)(=O)CC`, the melting point lay in the range of 35 to 36 °C.

Regarding `COc1ccc2oc(Cc3cccc(Cl)c3)c(CC#N)c2c1`, the melting point was determined as 82 °C.

The compound `CCCOc1ccccc1Nc1ncc(C(=O)OCC)c(=O)[nH]1` gave a melting point of 198 to 200 °C.

With `O=P(O)(O)Cc1ccc(S(=O)(=O)c2ccccc2)cc1`, the melting point was in the range of 217 to 219 °C.

On to `CSc1ccc(Br)cn1`, for which the melting point was 39 to 40 °C.

`N#CC(C(=O)C(F)(F)C(F)(F)F)c1ccccc1` (centres undefined): the melting point lay in the range of 94 to 95 °C.

For `O=C(NCc1cccc2ccccc12)C1CCc2[nH]cnc2C1` (centres undefined), the melting point lay within 142 to 144 °C.

With `CC(=O)OC1CSC(Oc2ccnc(-c3ccncc3)c2)C(OC(C)=O)C1OC(C)=O` (centres undefined), the melting point is 185 °C.

Compound `CCCc1ncc(/C=C(\Cc2cccs2)C(=O)O)n1Cc1ccccc1Cl` had a melting point of 200 °C.

Compound `CC(C)CCn1cc(C2CCN(CCOc3ccccc3C(=O)O)CC2)c2ccccc21` showed a melting point of 150 to 151 °C.

Take `COc1ccccc1-c1ccc(C(=O)N2Cc3ccc(C(=O)NCc4cccn4C)n3Cc3ccccc32)cc1`: the melting point fell in the range of 148 to 150 °C.

Turning to `CN1CC=C(c2c[nH]c3ccc(NC(=N)c4ccco4)cc23)CC1`, the melting point fell in the range of 212 to 215 °C.

On to `COc1cc(C)cc(OC)c1C1=NC(NC(=O)Nc2ccccc2Cl)C(=O)N(C)c2ccccc21` (centres undefined), for which the melting point came to 260 °C.

On to `O=C(O)c1ccc(-c2nc3ccc([N+](=O)[O-])cc3s2)cc1`, for which the melting point lay in the range of 352 to 355 °C.

The values are drawn from a melting point compilation (Tetko et al.; mined from patent text by program, amines drawn as free bases though some values may be those of a salt).
